In ChEMBL document CHEMBL1201862, “PubChem BioAssay data set” (2004):
The source made the active and inactive calls.

Experiments:
[1] = system: Danio rerio; assay: In Vivo Angiogenesis Dose-Response Confirmation. [Related pubchem assays: 732 (Assay preceding this confirmatory assay.)]; assay type: functional, organism-based
[2] = target: Cytochrome P450 3A4 (Homo sapiens, UniProt P08684);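 further: CYP3A4 tested as one member of a cytochrome P450 panel screen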
[3] = inhibitors of firefly luciferase expression or activity, dose response, H4 neuroglioma cells, luminescence (AID 1990); assay type: functional, cell-based
[4] = Luminescence Cell-Based Dose Response HTS to Identify Inhibitors of 5'UTR Stem-Loop Driven Prion Protein mRNA Translation in H4 Neuroglioblastoma Cells. [Related pubchem assays: 1827 (Project Summary), 1813 (Primary HTS)]; assay type: functional
[5] = target: Cytochrome P450 2C19 (Homo sapiens, UniProt P33261); assay: qHTS Assay for Inhibitors and Substrates of Cytochrome P450 2C19. [Related pubchem assays: 410 ]; assay type: ADME; settings: read-out: Potency
Chain of Cytochrome P450 2C19 (P33261 whole entry): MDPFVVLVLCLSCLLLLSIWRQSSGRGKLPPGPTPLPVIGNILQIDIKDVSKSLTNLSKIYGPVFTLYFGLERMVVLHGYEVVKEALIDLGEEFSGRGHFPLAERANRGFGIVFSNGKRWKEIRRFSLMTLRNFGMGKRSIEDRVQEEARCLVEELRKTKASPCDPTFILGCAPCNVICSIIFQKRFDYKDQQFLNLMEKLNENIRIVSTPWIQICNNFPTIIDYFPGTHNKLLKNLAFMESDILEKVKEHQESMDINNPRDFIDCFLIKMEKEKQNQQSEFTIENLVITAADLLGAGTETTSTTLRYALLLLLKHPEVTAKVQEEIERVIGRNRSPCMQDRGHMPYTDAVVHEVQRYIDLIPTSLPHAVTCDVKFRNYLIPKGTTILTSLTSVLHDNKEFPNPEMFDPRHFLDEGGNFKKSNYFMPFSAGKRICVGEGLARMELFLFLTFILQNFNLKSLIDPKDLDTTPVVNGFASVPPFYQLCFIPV

[6] = Late stage counterscreen results from the probe development effort to identify activators of signal transducer and activator of transcription 1 (STAT1): luminescence-based cell-based dose response assay to identify cytotoxic compounds.; assay type: functional
[7] = non-specific cell cytotoxicity, dose response, cytotoxicity control for PAX8 inhibitor project, plate reader, dry powder samples (AID 743021); assay type: functional, cell-based
[8] = target: Paired box protein Pax-8 (Homo sapiens, UniProt Q06710); assay: inhibitors of PAX8-driven TPO luciferase reporter, dose response, RMG-I cells, cherry-pick (AID 687027); assay type: functional, cell-based;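 further: luciferase reporter driven by Pax8 target thyroperoxidase promoter measured by SteadyGlo luminescence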
Chain of Paired box protein Pax-8 (Q06710 whole entry): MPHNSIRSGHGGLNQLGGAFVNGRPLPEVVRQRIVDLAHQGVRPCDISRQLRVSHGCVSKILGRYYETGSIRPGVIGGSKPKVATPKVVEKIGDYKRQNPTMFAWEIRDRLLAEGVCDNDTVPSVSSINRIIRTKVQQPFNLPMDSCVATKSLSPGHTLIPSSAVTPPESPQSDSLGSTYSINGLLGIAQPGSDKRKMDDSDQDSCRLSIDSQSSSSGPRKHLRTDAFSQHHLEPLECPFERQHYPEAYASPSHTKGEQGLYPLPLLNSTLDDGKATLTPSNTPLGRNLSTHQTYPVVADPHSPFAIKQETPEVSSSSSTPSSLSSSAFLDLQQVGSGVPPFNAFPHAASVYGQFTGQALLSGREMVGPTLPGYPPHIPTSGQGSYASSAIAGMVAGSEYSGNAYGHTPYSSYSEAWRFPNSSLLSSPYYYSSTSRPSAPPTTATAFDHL

[9] = target: Ephrin type-A receptor 4 (Mus musculus, UniProt Q03137); assay: inhibitors of EphA4 binding to KYL peptide, primary screen, biochemical, colorimetric, mouse EphA4 (AID 689); assay type: functional
Chain of Ephrin type-A receptor 4 (Q03137 whole entry): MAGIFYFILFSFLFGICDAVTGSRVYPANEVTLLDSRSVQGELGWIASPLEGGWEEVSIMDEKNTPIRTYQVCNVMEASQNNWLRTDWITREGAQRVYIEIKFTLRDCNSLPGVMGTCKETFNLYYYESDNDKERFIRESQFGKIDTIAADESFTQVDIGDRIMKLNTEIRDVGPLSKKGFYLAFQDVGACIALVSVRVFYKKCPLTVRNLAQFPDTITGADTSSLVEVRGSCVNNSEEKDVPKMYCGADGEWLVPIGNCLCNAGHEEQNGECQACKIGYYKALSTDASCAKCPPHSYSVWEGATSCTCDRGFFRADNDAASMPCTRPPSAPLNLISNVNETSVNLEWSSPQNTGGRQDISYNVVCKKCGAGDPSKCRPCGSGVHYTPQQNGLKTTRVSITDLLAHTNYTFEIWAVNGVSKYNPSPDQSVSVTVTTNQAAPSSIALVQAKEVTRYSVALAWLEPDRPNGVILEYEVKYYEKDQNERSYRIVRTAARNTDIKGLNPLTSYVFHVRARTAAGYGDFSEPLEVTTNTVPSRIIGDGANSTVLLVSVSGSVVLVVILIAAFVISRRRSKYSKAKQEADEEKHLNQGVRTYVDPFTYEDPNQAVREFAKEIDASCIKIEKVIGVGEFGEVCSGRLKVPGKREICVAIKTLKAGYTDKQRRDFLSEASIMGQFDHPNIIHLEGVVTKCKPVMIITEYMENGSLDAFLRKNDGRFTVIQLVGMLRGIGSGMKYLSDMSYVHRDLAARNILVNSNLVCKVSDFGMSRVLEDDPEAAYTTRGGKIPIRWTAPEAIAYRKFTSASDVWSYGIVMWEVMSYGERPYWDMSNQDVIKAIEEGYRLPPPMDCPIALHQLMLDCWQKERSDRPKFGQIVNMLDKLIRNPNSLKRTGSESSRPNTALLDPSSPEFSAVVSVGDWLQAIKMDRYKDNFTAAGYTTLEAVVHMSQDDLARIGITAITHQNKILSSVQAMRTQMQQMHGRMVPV

[10] = target: G-protein coupled receptor 35 (Homo sapiens, UniProt Q9HC97); assay: GPR35 antagonists blocking zaprinast-driven arrestin recruitment, primary screen, imaging, U2OS, beta-arrestin-GFP, zaprinast agonist (AID 2058); assay type: functional;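 further: antagonist potency meaning inhibition of agonist-induced arrestin redistribution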
[11] = target: T1, Heat shock factor protein 1 (Mus musculus, UniProt P38532); assay: HSF1 potentiators in luciferase reporter cells, confirmation, cell-based, NIH3T3, luminescence, dose retest (AID 435004); assay type: functional;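 further: stress induced by proteasome inhibitor MG132 added 30 min after compound; luciferase reporter driven by HSF1 response element in NIH3T3 cells; actives raise luminescence as potentiators of the MG132 stress response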
T1 sequence (P38532 whole entry): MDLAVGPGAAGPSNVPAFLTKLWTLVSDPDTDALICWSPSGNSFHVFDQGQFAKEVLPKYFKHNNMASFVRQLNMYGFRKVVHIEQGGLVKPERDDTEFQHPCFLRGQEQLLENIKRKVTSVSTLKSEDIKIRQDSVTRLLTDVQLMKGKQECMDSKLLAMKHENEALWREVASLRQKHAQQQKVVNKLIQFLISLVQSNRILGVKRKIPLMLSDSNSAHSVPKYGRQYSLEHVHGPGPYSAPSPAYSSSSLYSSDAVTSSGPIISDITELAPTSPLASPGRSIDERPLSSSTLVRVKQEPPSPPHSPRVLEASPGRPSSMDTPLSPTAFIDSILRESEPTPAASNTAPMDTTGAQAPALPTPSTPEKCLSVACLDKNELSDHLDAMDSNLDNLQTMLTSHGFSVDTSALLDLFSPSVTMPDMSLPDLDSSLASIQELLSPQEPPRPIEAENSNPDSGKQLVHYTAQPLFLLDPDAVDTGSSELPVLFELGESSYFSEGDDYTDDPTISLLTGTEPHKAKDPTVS

[12] = target: T2, Zinc finger protein mex-5 (Caenorhabditis elegans, UniProt Q9XUB2); assay: MEX-5/TCR-2 RNA interaction inhibitors, dose response, biochemical, C. elegans, fluorescence polarization (AID 1960)
T2 sequence (Q9XUB2 whole entry): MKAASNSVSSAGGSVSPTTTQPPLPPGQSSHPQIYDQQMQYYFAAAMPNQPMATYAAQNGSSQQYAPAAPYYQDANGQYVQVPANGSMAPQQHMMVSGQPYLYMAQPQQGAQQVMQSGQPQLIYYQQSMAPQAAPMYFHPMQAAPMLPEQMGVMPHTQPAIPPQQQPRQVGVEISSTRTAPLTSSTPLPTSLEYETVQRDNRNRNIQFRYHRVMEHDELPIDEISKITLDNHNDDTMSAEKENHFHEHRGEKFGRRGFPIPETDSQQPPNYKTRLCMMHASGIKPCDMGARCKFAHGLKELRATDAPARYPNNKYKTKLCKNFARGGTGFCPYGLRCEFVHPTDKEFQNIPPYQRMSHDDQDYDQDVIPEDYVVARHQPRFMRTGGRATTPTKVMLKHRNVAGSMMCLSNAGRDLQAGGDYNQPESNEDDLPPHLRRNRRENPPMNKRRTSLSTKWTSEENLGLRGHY

[13] = target: T3, Bcl-2-related protein A1 (Mus musculus, UniProt Q07440); assay: Bfl-1 inhibitors, primary screen, biochemical, fluorescence polarization, FITC-Bid, mouse (AID 432)
T3 sequence (Q07440 whole entry): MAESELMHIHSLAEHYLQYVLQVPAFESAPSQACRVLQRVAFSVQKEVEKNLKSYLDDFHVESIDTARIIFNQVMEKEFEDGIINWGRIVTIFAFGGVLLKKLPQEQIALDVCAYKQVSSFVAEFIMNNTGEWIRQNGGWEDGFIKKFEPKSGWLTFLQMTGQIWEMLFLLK

[14] = target: T3, Bcl-2-related protein A1; assay: Bfl-1 inhibitors blocking BH3 peptide binding, confirmation, biochemical, TR-FRET, mouse Bfl-1 (AID 621);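 further: TR-FRET binding of GST-Bfl-1 to FITC-labelled Bid peptide via terbium antibody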
[15] = target: T4, RNA-binding protein pos-1 (Caenorhabditis elegans, UniProt G5EF15); assay: inhibitors of POS-1/mex-3 RNA binding, dose response, biochemical, fluorescence polarization (AID 1964);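 further: purified POS-1 fused to maltose binding protein made in E. coli; potency of compounds blocking POS-1 binding to fluorescent RNA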
T4 sequence (G5EF15 whole entry): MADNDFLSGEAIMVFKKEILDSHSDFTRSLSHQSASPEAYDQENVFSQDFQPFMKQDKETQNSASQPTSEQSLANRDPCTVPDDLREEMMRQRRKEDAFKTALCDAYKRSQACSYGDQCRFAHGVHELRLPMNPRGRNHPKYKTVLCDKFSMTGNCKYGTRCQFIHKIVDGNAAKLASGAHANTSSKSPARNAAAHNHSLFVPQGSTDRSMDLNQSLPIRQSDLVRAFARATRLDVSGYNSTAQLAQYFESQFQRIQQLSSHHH

[16] = target: Peroxisome proliferator-activated receptor gamma/Nuclear receptor coactivator 2 (Homo sapiens, UniProt P37231); assay: (§1) TR-FRET dose response biochemical High Throughput Screening assay for agonists of the steroid receptor coactivator 2 (SRC-2) recruitment by the peroxisome proliferator-activated receptor gamma (PPAR gamma): non-selective agonists. [Related pubchem assays: 1297, 1032 ]; assay type: functional
[17] = target: Peroxisome proliferator-activated receptor gamma/Nuclear receptor coactivator 1 (Homo sapiens, UniProt P37231); assay: as §1, with “1 (SRC-1)” for “2 (SRC-2)”, “assays (depositor defined):AID1300, AID1808, AID504735, AID631]” for “assays: 1297, 1032 ]”; assay type: protein assay
[18] = target: Photoreceptor-specific nuclear receptor (Homo sapiens, UniProt Q9Y5X4); assay: NR2E3 inverse agonists, dose response, biochemical, TR-FRET (AID 463256); assay type: functional
Chain of Photoreceptor-specific nuclear receptor (Q9Y5X4 whole entry): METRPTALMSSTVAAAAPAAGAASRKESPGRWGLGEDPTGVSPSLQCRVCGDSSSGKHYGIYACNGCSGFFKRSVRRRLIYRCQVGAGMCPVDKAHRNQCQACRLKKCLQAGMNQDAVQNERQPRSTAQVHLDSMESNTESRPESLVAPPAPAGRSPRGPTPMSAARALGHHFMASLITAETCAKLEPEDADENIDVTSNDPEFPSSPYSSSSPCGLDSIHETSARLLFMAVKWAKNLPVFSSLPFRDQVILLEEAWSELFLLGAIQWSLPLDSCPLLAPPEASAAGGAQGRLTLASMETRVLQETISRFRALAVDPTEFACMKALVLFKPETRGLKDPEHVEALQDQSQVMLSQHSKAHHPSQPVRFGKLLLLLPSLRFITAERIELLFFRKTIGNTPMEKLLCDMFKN

[19] = target: Peroxisome proliferator-activated receptor gamma/Nuclear receptor coactivator 3 (Homo sapiens, UniProt P37231); assay: as §1, with “3 (SRC-3)” for “2 (SRC-2)”, “1301 (Confirmation screen.), 1048 (Primary screen.)]” for “1297, 1032 ]”; assay type: functional
Chain of Peroxisome proliferator-activated receptor gamma/Nuclear receptor coactivator 3 (P37231 whole entry): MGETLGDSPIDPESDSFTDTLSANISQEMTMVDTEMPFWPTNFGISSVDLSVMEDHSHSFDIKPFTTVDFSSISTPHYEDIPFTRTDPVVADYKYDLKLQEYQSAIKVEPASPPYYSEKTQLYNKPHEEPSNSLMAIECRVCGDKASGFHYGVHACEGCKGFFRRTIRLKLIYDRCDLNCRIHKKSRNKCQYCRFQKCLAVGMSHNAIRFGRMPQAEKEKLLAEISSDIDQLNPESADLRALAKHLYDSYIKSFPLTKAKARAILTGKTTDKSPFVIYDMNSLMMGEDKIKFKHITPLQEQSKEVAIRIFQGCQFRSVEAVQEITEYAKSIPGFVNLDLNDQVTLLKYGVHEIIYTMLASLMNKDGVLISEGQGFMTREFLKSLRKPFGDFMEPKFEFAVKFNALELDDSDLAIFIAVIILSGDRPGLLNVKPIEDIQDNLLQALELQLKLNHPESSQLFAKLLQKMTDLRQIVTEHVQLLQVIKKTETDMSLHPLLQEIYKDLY
Chain of Peroxisome proliferator-activated receptor gamma/Nuclear receptor coactivator 3 (Q9Y6Q9 whole entry, further chain): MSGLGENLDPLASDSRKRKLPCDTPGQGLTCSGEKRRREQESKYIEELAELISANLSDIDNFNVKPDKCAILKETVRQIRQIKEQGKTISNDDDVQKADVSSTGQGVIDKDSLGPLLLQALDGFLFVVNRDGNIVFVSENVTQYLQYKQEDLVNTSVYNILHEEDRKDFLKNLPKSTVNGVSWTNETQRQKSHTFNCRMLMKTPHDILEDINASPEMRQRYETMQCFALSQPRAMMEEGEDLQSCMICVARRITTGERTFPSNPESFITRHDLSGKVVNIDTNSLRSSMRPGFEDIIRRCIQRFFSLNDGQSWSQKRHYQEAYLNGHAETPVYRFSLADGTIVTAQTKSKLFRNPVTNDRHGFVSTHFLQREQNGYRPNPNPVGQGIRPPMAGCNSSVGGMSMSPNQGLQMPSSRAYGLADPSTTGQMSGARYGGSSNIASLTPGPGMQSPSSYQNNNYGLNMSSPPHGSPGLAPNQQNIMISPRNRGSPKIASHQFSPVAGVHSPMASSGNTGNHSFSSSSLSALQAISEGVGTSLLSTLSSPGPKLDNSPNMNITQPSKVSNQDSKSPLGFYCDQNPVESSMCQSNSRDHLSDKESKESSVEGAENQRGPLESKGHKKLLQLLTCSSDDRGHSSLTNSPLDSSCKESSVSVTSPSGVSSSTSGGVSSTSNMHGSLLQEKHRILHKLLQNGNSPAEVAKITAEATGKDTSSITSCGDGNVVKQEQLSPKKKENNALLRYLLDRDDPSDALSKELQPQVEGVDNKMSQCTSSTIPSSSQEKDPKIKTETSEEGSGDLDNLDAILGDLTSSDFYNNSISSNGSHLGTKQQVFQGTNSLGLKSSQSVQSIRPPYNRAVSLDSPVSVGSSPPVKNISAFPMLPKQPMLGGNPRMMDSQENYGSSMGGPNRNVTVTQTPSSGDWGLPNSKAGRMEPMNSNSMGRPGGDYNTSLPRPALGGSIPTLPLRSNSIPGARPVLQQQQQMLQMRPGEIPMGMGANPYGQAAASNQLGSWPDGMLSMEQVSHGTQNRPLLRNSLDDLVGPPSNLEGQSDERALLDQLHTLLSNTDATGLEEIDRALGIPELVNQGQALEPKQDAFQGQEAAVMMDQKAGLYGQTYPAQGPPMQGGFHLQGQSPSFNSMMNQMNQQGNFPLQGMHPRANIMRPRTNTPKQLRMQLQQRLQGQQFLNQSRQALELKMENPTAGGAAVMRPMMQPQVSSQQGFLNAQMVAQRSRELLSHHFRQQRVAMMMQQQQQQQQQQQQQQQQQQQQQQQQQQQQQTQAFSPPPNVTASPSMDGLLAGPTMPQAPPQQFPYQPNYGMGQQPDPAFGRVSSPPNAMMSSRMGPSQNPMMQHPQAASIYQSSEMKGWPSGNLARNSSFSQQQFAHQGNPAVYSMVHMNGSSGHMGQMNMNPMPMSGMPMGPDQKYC

[20] = target: Peroxisome proliferator-activated receptor gamma/Nuclear receptor corepressor 2 (Homo sapiens, UniProt P37231+Q9Y618); assay: Counterscreen for NR2E3 inverse agonists: TR-FRET-based biochemical high throughput dose response assay to identify inverse agonists of the interaction between peroxisome proliferator-activated receptor gamma (PPARg) and nuclear receptor co-repressor 2 (NCOR2).; assay type: functional
[21] = target: Large T antigen (Simian virus 40, UniProt P03070); assay type: functional, Betapolyomavirus macacae;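 further: Confirmatory-stage PubChem screen for compounds that inhibit SV40 T antigen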
[22] = Luminescent dose response cell-based high throughput screening assay for inhibitors of the Janus kinase 2 mutant JAK2V617F. [Related pubchem assays: 1446 (Primary screen.), 1521 (Confirmation assay.), 1486 (Counter screen.)]; assay type: functional
[23] = target: FAD-linked sulfhydryl oxidase ALR (Homo sapiens, UniProt P55789); assay: inhibitors of human ALR sulfhydryl oxidase, dose response, biochemical, H2O2 detection, luminescence, cherry-pick (AID 493248)
Chain of FAD-linked sulfhydryl oxidase ALR (P55789 whole entry): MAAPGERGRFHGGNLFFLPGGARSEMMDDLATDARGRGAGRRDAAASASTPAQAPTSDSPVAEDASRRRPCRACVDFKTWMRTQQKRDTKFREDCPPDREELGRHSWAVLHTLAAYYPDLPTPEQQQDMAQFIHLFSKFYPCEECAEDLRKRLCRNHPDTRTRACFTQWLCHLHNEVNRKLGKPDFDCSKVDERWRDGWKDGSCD

[24] = target: T5, Leucine aminopeptidase (Plasmodium falciparum 3D7, UniProt Q8IL11); assay: P. falciparum M17LAP inhibitors, primary screen, biochemical, fluorogenic H-Leu-NHMec substrate, 1536-well (AID 1619); assay type: functional
T5 sequence (Q8IL11 whole entry): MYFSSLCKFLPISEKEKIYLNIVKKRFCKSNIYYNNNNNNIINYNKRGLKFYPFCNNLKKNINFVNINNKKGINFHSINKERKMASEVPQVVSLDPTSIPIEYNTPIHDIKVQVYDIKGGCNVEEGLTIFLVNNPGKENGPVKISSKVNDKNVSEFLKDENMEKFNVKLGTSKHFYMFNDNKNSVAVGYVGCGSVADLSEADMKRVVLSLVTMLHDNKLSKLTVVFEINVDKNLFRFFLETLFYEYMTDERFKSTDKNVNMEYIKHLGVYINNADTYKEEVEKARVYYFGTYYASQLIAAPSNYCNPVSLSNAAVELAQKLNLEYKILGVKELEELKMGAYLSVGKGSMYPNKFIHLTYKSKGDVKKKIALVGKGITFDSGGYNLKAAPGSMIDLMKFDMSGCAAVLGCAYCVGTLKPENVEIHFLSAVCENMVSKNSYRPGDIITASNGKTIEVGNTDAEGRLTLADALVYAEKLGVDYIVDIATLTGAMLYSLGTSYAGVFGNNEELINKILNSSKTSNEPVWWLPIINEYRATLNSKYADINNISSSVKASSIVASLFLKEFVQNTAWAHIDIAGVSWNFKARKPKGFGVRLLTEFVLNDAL

[25] = target: T6, Rac GTPase-activating protein 1 (Homo sapiens, UniProt Q9H0H5); assay: MgcRacGAP GTPase-activating activity inhibitors, confirmation, biochemical, ADP Hunter fluorescence, primary and confirmatory (AID 624330); assay type: functional
T6 sequence (Q9H0H5 whole entry): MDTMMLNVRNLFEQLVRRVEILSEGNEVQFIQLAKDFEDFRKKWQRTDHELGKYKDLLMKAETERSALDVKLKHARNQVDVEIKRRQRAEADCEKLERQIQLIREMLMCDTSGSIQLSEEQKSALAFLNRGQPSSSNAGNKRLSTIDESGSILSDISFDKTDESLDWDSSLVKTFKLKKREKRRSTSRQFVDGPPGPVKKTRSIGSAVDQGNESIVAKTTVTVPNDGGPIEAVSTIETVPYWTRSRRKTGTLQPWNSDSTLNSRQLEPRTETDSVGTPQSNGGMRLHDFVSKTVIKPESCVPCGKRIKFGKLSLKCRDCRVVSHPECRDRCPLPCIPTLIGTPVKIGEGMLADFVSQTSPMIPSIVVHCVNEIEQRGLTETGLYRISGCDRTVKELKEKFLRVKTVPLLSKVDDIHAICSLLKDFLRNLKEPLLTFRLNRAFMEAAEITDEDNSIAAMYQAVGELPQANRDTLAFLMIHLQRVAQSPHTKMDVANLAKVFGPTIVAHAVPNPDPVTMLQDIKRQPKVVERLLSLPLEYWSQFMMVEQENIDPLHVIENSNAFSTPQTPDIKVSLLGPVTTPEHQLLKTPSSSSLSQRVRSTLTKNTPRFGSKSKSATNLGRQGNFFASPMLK

[26] = target: Heat shock protein HSP90 (Homo sapiens, UniProt P07900+P08238); assay: tumor Hsp90 inhibitor potency, dose response (AID 712); assay type: functional

Chain of Cytochrome P450 3A4 (P08684 whole entry): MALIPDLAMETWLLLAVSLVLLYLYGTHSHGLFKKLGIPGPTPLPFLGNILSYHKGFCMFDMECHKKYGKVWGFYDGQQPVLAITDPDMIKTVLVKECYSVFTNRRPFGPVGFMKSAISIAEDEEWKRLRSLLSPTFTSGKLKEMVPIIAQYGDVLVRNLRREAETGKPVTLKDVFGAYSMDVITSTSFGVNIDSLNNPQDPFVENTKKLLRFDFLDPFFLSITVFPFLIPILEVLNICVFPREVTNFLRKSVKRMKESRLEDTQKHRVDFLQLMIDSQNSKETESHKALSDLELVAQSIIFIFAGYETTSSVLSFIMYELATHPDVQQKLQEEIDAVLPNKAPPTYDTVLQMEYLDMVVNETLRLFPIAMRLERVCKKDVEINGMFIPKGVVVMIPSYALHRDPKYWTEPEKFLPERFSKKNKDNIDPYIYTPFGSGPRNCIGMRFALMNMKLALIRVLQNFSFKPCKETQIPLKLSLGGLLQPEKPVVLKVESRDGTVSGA

## NC(=O)c1cc(N2CC2)c([N+](=O)[O-])cc1[N+](=O)[O-] [TRETAZICAR]
[1]
  IC50: 1.2 µM (not active)
[2]
  AC50: 39.8 µM (inconclusive)
[3]
  EC50: > 120 µM (not active)
[4]
  EC50: > 120 µM (not active)

## COc1cc2oc(-c3ccccc3)cc(=O)c2cc1OC
[5]
  AC50: 31.6 µM (inconclusive)

## Cc1ccc(C(=O)Nc2nc3ccccc3s2)s1
[6]
  IC50: > 55.7 µM (not active)

## FC(F)(F)c1nnc2c(Sc3ccccn3)nc3ccccc3n12
[7]
  AC50: 55.5 µM (active)
[8]
  AC50: 7.08 µM (active)
[9]
  IC50: > 100 µM (not active)

## CN1CC=C2C(C#N)=C(N)C(C#N)(C#N)C(c3cccc(Cl)c3Cl)C2C1 (stereo unspecified)
[10]
  IC50: 12 µM (inactive)
[11]
  EC50: > 260 µM (inactive)
[12]
  EC50: 13.5 µM (active)
[13]
  IC50: > 100 µM (not active)
[14]
  IC50: > 100 µM (not active)
[15]
  EC50: 14.4 µM (active)

## Cc1ccc(S(=O)(=O)Nc2cnn(-c3ccccc3)c(=O)c2Cl)cc1
[16]
  EC50: 19.2 µM (not active)
[17]
  EC50: > 79.4 µM (inactive)
[18]
  IC50: > 39.8 µM (not active)
[19]
  EC50: > 79.4 µM (not active)
[20]
  IC50: > 39.8 µM (not active)

## CCCc1nc2ccccc2c(=O)n1/N=C/c1ccc(O)c(O)c1
[21]
  IC50: 10.5 µM (active)
[22]
  IC50: 2.18 µM (active)
[23]
  AC50: 577 nM (active)
[24]
  IC50: 24.2 µM (active)
[25]
  IC50: 38.8 µM (active)
[26]
  IC50: 17.5816 µM
